Test systems include OVCAR-3 ovarian; SW-620 colon; OVCAR-4 ovarian; OVCAR-8 ovarian; HOP-92 NSCLC; NCI-H460 lung; MALME-3M melanoma; MCF7 breast; NCI-H522 lung; SF-295 CNS; EKVX NSCLC; K-562 leukemia; IGROV1 ovarian; NCI/ADR-RES ovarian; KM12 colon; SF-268 CNS; RPMI-8226 leukemia; HL-60(TB) leukemia; CCRF-CEM leukemia; T-47D breast.
Common to all, as to assay: NCI tumour cell line growth inhibition, 48 h

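Five concentrations, 48 hours, 96-well plates. At the TGI there is no net growth.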

Consider `c1ccc(NN=C(c2ccccn2)c2ccccn2)nc1`, for which the TGI in the test with OVCAR-3 ovarian, in the test with SW-620 colon, in the test on OVCAR-4 ovarian, with OVCAR-8 ovarian, with HOP-92 NSCLC and with NCI-H460 lung was above 100 µM each time. The TGI in the test with MALME-3M melanoma is 26.1 µM; with MCF7 breast it was above 100 µM; in the test on NCI-H522 lung it was above 100 µM; in the test on SF-295 CNS, above 100 µM; in the test with EKVX NSCLC, above 100 µM; in the test with K-562 leukemia, above 100 µM. Further, the TGI in the test on IGROV1 ovarian is above 100 µM; in the test on NCI/ADR-RES ovarian it was 5.05 µM; in the test on KM12 colon, above 100 µM; in the test on SF-268 CNS, above 100 µM.

As to `COc1ccc(/C(Cl)=C(\C=O)c2ccc(OC)c(OC)c2)cc1`, the TGI in the test on OVCAR-3 ovarian is above 100 µM; in the test on SW-620 colon it was above 100 µM; in the test with OVCAR-8 ovarian, above 100 µM; in the test on HOP-92 NSCLC it was 53.4 µM; with NCI-H460 lung it was above 100 µM; in the test on MALME-3M melanoma it was above 100 µM. In addition, the TGI was 85.3 µM in the test on NCI-H522 lung; above 100 µM in the test with SF-295 CNS; above 100 µM with EKVX NSCLC; above 100 µM in the test with K-562 leukemia; above 100 µM with RPMI-8226 leukemia; above 100 µM with HL-60(TB) leukemia. In addition, the TGI in the test with IGROV1 ovarian, in the test with CCRF-CEM leukemia and in the test with SF-268 CNS was above 100 µM each time.

Turning to `CC(C)CC(NC(=O)C(CI)Cc1ccccc1)C(=O)Nc1ccccc1` (configuration not stated), the TGI with OVCAR-3 ovarian, in the test with SW-620 colon, with OVCAR-4 ovarian, in the test with OVCAR-8 ovarian, in the test with HOP-92 NSCLC and in the test with NCI-H460 lung was above 100 µM each time. The TGI with MALME-3M melanoma, with MCF7 breast, in the test with NCI-H522 lung, with SF-295 CNS, with EKVX NSCLC and in the test on K-562 leukemia was above 100 µM each time. Also, the TGI in the test on RPMI-8226 leukemia, in the test with HL-60(TB) leukemia, with IGROV1 ovarian, in the test on NCI/ADR-RES ovarian, with KM12 colon and with CCRF-CEM leukemia was above 100 µM throughout.

Regarding `O=C(Oc1ccccc1)N1c2ccccc2[C@@]23O[C@]24CCC[C@H]3C#C/C=C\C#C[C@H]14`, the TGI turned out to be 26.1 µM in the test with OVCAR-3 ovarian; 23.5 µM in the test with SW-620 colon; 23.3 µM with OVCAR-4 ovarian; 24.8 µM in the test with OVCAR-8 ovarian; 27 µM in the test with HOP-92 NSCLC; 11.4 µM with NCI-H460 lung. Besides, the TGI with MALME-3M melanoma was 22.1 µM; in the test on SF-295 CNS it was 30.9 µM; in the test with EKVX NSCLC, 31.8 µM; in the test with K-562 leukemia it was above 100 µM; in the test on RPMI-8226 leukemia, 32.9 µM; in the test on HL-60(TB) leukemia, 26.1 µM. The TGI is 24.9 µM with IGROV1 ovarian; 33.2 µM with NCI/ADR-RES ovarian; 26.4 µM in the test on KM12 colon; above 100 µM in the test with CCRF-CEM leukemia; 22 µM with T-47D breast; 43.2 µM with SF-268 CNS.

Regarding `COc1cc(C(C)=O)cc(C(=O)N(C(C)C)C(C)C)c1[Si](C)(C)C`, the TGI in the test with OVCAR-3 ovarian, in the test with SW-620 colon, in the test with OVCAR-4 ovarian, in the test on OVCAR-8 ovarian, with HOP-92 NSCLC and in the test with NCI-H460 lung was above 100 µM in each case. For the same compound, the TGI in the test on MCF7 breast, in the test with NCI-H522 lung, in the test with SF-295 CNS, in the test on HL-60(TB) leukemia, with IGROV1 ovarian and in the test with KM12 colon was above 100 µM throughout. Further, the TGI in the test with CCRF-CEM leukemia, in the test on T-47D breast and with SF-268 CNS was above 100 µM throughout.

As for `O=C1NP23(OCCO2)Oc2ccccc2C3(C(F)(F)F)O1` (configuration not stated), the TGI in the test on OVCAR-3 ovarian, with OVCAR-4 ovarian, with OVCAR-8 ovarian, with NCI-H460 lung, with MALME-3M melanoma and with NCI-H522 lung was above 100 µM in each case. The TGI in the test with SF-295 CNS, in the test with K-562 leukemia, with HL-60(TB) leukemia, in the test on KM12 colon, in the test with CCRF-CEM leukemia and in the test on SF-268 CNS was above 100 µM in each case.

For the compound `COc1cc(N=Nc2cccc(S(=O)(=O)O)c2)ccc1N=Nc1ccc(/C=C/c2ccc(-n3on3-c3ccc(/C=C/c4ccc(N=Nc5ccc(N=Nc6cccc(S(=O)(=O)O)c6)cc5OC)cc4S(=O)(=O)O)c(S(=O)(=O)O)c3)cc2S(=O)(=O)O)c(S(=O)(=O)O)c1`, the TGI in the test with OVCAR-3 ovarian, with SW-620 colon, with OVCAR-4 ovarian, in the test on OVCAR-8 ovarian, in the test with HOP-92 NSCLC and in the test with NCI-H460 lung was above 100 µM each time. The TGI in the test on MALME-3M melanoma, with MCF7 breast, with NCI-H522 lung, with SF-295 CNS, in the test with EKVX NSCLC and in the test with K-562 leukemia was above 100 µM each time. In addition, the TGI in the test on RPMI-8226 leukemia, in the test on HL-60(TB) leukemia, with IGROV1 ovarian, with NCI/ADR-RES ovarian, in the test with KM12 colon and in the test on CCRF-CEM leukemia was above 100 µM throughout. The TGI in the test with SF-268 CNS was above 100 µM.

As for `COc1cc(N(CCC#N)CCC#N)ccc1/C(N=Nc1ccccc1C)=N\NC(=O)c1ccc(C)cc1`, the TGI in the test with OVCAR-3 ovarian, in the test on SW-620 colon, with OVCAR-4 ovarian, in the test with OVCAR-8 ovarian, in the test on HOP-92 NSCLC and with NCI-H460 lung was above 100 µM in each case. The TGI was above 100 µM in the test on MALME-3M melanoma; above 100 µM with NCI-H522 lung; above 100 µM in the test with SF-295 CNS; above 100 µM in the test with EKVX NSCLC; above 100 µM in the test with K-562 leukemia; 23 µM in the test on HL-60(TB) leukemia. Moreover, the TGI in the test on IGROV1 ovarian was above 100 µM; in the test with NCI/ADR-RES ovarian, above 100 µM; in the test with KM12 colon it was above 100 µM; in the test with CCRF-CEM leukemia, 40.3 µM; with T-47D breast, above 100 µM; with SF-268 CNS, above 100 µM.

Regarding `CN1C(=O)CSC1=S`, the TGI in the test on OVCAR-3 ovarian, in the test on SW-620 colon, in the test on OVCAR-4 ovarian, with OVCAR-8 ovarian, in the test on HOP-92 NSCLC and in the test on NCI-H460 lung was above 100 µM in each case. Also, the TGI in the test with MALME-3M melanoma, in the test with NCI-H522 lung, with SF-295 CNS, in the test on K-562 leukemia, in the test on RPMI-8226 leukemia and in the test on HL-60(TB) leukemia was above 100 µM each time. The TGI in the test on IGROV1 ovarian, in the test on KM12 colon, in the test with CCRF-CEM leukemia and in the test on SF-268 CNS was above 100 µM each time.

For `Cc1cc(C)c(C(=O)c2nnc3ccccc3c2N)c(C)c1`, the TGI in the test on OVCAR-3 ovarian is 36.6 µM; in the test with SW-620 colon, above 100 µM; with HOP-92 NSCLC, 52.9 µM; in the test with RPMI-8226 leukemia, above 100 µM; in the test on HL-60(TB) leukemia it was 73.4 µM; in the test with IGROV1 ovarian it was 46.7 µM. Besides, the TGI with NCI/ADR-RES ovarian was 74.2 µM; in the test on KM12 colon, 42 µM; in the test with CCRF-CEM leukemia it was above 100 µM; in the test with T-47D breast it was 56.6 µM; in the test with SF-268 CNS it was above 100 µM.

For `COC(=O)[C@]12CCC(C)(C)C[C@H]1[C@H]1C(=O)C=C3[C@@]4(C)C=C(C#N)C(=O)C(C)(C)[C@@H]4CC[C@@]3(C)[C@]1(C)CC2`, the TGI was 0.0615 µM in the test with OVCAR-3 ovarian; 0.946 µM in the test with SW-620 colon; above 7.76 µM in the test with OVCAR-4 ovarian; 0.0414 µM with OVCAR-8 ovarian; 4.03 µM in the test with HOP-92 NSCLC; above 13.5 µM in the test on NCI-H460 lung. The TGI in the test on MALME-3M melanoma is 0.143 µM; with NCI-H522 lung, above 100 µM; in the test on SF-295 CNS, 0.105 µM; with EKVX NSCLC, 0.208 µM; in the test with K-562 leukemia, above 27.9 µM; in the test on RPMI-8226 leukemia, 0.126 µM. In addition, the TGI with HL-60(TB) leukemia was 0.421 µM; with IGROV1 ovarian it was 1.15 µM; in the test on NCI/ADR-RES ovarian, 0.0337 µM; in the test on KM12 colon it was 0.159 µM; with CCRF-CEM leukemia it was above 100 µM; with T-47D breast, 0.159 µM.

As to `N#CC(OC1OC(COC2OC(CO)C(O)C(O)C2O)C(O)C(O)C1O)c1ccccc1` (configuration not stated), the TGI in the test with OVCAR-3 ovarian, with SW-620 colon, in the test on OVCAR-4 ovarian, in the test with OVCAR-8 ovarian, in the test with HOP-92 NSCLC and in the test on NCI-H460 lung was above 225 µM in each case. Besides, the TGI in the test on MALME-3M melanoma, in the test on MCF7 breast, with NCI-H522 lung, with SF-295 CNS, with EKVX NSCLC and in the test with K-562 leukemia was above 225 µM in each case. Besides, the TGI in the test on RPMI-8226 leukemia, with HL-60(TB) leukemia, in the test on IGROV1 ovarian, in the test on NCI/ADR-RES ovarian, in the test on KM12 colon and with CCRF-CEM leukemia was above 225 µM each time. The same compound displayed a TGI in the test with SF-268 CNS above 225 µM.

On to `COC1=CC2C(c3cc4ccccc4n3S(=O)(=O)c3ccccc3)CC1CN2C(=O)OCc1ccccc1` (configuration not stated), for which the TGI with OVCAR-3 ovarian is above 100 µM; with SW-620 colon it was above 100 µM; in the test with OVCAR-4 ovarian, above 100 µM; in the test with OVCAR-8 ovarian, above 100 µM; in the test on NCI-H460 lung, above 100 µM; in the test with MALME-3M melanoma it was 61 µM. The TGI in the test with MCF7 breast was above 100 µM; in the test on NCI-H522 lung, 52.9 µM; in the test on SF-295 CNS, above 100 µM; in the test with EKVX NSCLC, 82.2 µM; with K-562 leukemia, 76.5 µM; in the test on RPMI-8226 leukemia it was 44.6 µM. In addition, the TGI is 41.9 µM in the test with HL-60(TB) leukemia; above 100 µM in the test with IGROV1 ovarian; above 100 µM in the test on NCI/ADR-RES ovarian; above 100 µM with KM12 colon; above 100 µM with CCRF-CEM leukemia.

For the origin of these results see PubChem BioAssay (NCI).
